The results in this text go back to ChEMBL document CHEMBL1140761 (Bioorg Med Chem, 2008).

One assay addresses Adenosine receptor A2a (Homo sapiens, UniProt P29274). As to the kind of experiment: Displacement of [3H]NECA from human recombinant adenosine A2A receptor expressed in CHO cells. The assay is classed as cell-based. A general note: In a radioligand displacement assay an active substance lowers the binding of a labelled ligand.
A further assay addresses T1, Adenosine receptor A3 (Homo sapiens, UniProt P0DMS8).
T1 sequence (P0DMS8 whole entry): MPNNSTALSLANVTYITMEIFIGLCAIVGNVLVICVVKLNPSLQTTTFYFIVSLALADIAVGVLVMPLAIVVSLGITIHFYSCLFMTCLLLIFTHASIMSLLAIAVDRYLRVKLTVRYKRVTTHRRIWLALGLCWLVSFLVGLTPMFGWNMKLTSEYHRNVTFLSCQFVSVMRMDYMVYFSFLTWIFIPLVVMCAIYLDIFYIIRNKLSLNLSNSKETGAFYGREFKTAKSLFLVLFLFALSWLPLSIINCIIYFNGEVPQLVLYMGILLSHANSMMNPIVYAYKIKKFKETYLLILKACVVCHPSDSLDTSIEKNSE
As to the kind of experiment: Displacement of [3H]NECA from human recombinant adenosine A3 receptor expressed in CHO cells. The assay is classed as cell-based.

Assay [1] deals with T2, A1 adenosine receptor (Sus scrofa) (UniProt Q4VQ11).
T2 sequence (whole entry): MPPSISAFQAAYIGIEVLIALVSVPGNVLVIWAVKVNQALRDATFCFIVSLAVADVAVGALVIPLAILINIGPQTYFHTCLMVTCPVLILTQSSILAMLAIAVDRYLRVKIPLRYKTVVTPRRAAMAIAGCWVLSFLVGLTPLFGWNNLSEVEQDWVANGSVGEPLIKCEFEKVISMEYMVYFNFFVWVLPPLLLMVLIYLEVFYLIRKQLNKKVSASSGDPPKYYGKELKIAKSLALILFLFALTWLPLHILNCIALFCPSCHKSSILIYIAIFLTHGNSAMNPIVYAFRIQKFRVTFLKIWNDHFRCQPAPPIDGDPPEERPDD
As to the kind of experiment: Agonist activity at adenosine A1 receptor in pig cortical membrane assessed as stimulation of GTPgammaS binding relative to CPA. The assay is classed as functional, cell membranes. For orientation: GTPγS is a poorly hydrolysed GTP analogue; its binding reports G protein activation.

Assay [2] is filed under the species Homo sapiens. As to the kind of experiment: Selectivity for human adenosine A3 receptor over human adenosine A2A receptor.
The next assay addresses Adenosine receptor A2 (Sus scrofa, UniProt K9IW67). As to the kind of experiment: Displacement of [3H]CGS21680 from […] in pig striatum membrane. The assay is classed as cell membranes.
A further assay concerns the target Uncharacterized protein (Bos taurus, UniProt E1BKU0). As to the kind of experiment: Displacement of [3H]CGS21680 from […] in bovine striatum membrane. The assay is classed as cell membranes.
Assay [3] addresses T3, A1 adenosine receptor (Sus scrofa, UniProt Q4VQ11).
T3 sequence (Q4VQ11 whole entry): T2 sequence (whole entry)
The assay is classed as cell membranes.

The target in assay [4] is T4, Adenosine receptor A1 (Bos taurus, UniProt P28190).
T4 sequence (P28190 whole entry): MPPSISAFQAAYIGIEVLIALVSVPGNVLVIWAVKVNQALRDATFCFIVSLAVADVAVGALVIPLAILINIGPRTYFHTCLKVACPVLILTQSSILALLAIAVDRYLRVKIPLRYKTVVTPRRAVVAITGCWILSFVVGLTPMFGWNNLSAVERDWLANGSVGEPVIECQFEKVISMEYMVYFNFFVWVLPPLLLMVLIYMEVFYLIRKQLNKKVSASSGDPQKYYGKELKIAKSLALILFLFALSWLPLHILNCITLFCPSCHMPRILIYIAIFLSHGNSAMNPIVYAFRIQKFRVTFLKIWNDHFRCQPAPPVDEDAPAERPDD
The assay is classed as cell membranes. The following applies: read-out: Ki.

The species named for assay [5] is Homo sapiens. As to the kind of experiment: Selectivity for human adenosine A1 receptor over human adenosine A2A receptor.
Assay [6] addresses T5, Adenosine receptor A1 (Homo sapiens, UniProt P30542).
T5 sequence (P30542 whole entry): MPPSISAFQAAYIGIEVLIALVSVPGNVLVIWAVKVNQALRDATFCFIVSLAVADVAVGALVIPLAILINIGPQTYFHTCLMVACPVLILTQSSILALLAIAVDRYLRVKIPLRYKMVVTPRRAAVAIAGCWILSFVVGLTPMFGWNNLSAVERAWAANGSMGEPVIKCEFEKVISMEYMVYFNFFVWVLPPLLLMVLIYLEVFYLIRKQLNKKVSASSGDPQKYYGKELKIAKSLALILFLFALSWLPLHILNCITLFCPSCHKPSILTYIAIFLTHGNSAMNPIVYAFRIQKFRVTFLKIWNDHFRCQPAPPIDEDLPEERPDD
As to the kind of experiment: Displacement of [3H]CCPA from human recombinant adenosine A1 receptor expressed in CHO cells. The assay is classed as cell-based.

Assay [7] concerns the target Adenosine receptors; A1 & A3 (Homo sapiens) (UniProt P30542+P0DMS8). As to the kind of experiment: Selectivity for human adenosine A1 receptor over human adenosine A3 receptor.
Assay [8] concerns the target T3, A1 adenosine receptor. As to the kind of experiment: Agonist activity at adenosine A1 receptor in pig cortical membrane assessed as stimulation of GTPgammaS binding. The assay is classed as functional, cell membranes.

Some results are limits rather than exact numbers.

Adenosine receptor A2a, sequence (P29274 whole entry): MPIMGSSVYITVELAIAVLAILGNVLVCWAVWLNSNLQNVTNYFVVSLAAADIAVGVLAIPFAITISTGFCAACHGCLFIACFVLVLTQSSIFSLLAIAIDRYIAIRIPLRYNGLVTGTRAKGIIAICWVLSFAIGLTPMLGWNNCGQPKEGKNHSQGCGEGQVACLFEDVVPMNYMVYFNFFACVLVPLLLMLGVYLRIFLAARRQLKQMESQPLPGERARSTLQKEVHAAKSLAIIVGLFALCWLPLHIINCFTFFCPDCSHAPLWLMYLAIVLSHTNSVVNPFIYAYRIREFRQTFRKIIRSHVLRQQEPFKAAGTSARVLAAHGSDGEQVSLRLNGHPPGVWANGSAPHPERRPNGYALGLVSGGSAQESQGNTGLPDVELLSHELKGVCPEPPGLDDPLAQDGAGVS
Uncharacterized protein, sequence (E1BKU0 whole entry): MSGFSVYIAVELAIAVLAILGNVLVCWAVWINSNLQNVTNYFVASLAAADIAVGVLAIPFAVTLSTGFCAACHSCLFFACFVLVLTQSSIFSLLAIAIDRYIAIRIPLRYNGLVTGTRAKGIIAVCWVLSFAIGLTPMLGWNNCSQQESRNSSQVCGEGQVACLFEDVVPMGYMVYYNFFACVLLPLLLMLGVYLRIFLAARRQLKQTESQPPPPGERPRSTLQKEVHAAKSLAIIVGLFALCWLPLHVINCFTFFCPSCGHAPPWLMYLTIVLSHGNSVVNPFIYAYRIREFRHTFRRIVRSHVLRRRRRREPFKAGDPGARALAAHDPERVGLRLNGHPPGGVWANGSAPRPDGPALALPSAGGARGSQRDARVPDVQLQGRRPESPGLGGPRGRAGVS

As to `CNC(=S)OC[C@H]1O[C@@H](n2cnc3c(NC4CCCC4)nc(Cl)nc32)[C@](C)(O)[C@@H]1O`, the Ki at Adenosine receptor A2a was 8760 nM; at Adenosine receptor A3 it was above 100000 nM; at Adenosine receptor A2 it was 9200 nM; on Uncharacterized protein it was 15000 nM; on A1 adenosine receptor [3], 13 nM; on Adenosine receptor A1 [4], 66 nM. Also, the Ki on Adenosine receptor A1 [6] amounted to 356 nM. Moreover, the Efficacy in assay [1] was 64%. Further, the Ratio Ki in the assay filed under Homo sapiens [2] came out at 3.1; in the assay filed under Homo sapiens [5] it was 24.6; in assay [7], 7.9. Besides, at A1 adenosine receptor [8], the 50% effective concentration (EC50) was found to be 326 nM.
In the case of `CNC(=O)OC[C@H]1O[C@@H](n2cnc3c(NC4CCCC4)nc(Cl)nc32)[C@](C)(O)[C@@H]1O`, the Ki is 10400 nM at Adenosine receptor A2a; above 100000 nM at Adenosine receptor A3; 72 nM at A1 adenosine receptor [3]; 156 nM at Adenosine receptor A1 [4]; 1120 nM at Adenosine receptor A1 [6]. Also, in [1], the Efficacy stood at 61%. Moreover, the Ratio Ki in the assay listed under Homo sapiens [2] was found to be 1.2; in the assay listed under Homo sapiens [5] it was 9.3; in assay [7], 7.5. For the same compound, the EC50 on A1 adenosine receptor [8] is 165 nM.
Regarding `C[C@@]1(O)[C@H](O)[C@@H](CO)O[C@H]1n1cnc2c(N[C@@H]3CCOC3)ncnc21`, the Ki on Adenosine receptor A2a was above 100000 nM; at Adenosine receptor A3 it was 35500 nM; at A1 adenosine receptor [3], 150 nM; on Adenosine receptor A1 [4] it was 13.6 nM; on Adenosine receptor A1 [6] it was 21 nM. In addition, in [1], the Efficacy stood at 95%. Besides, the Ratio Ki in the assay listed under Homo sapiens [2] was above 22.5; in the assay listed under Homo sapiens [5], above 4760; in assay [7] it was 211. In addition, the EC50 at A1 adenosine receptor [8] worked out at 3620 nM.
Take `OC[C@H]1O[C@@H](n2cnc3c(N[C@@H]4CCOC4)nc(Cl)nc32)[C@H](O)[C@@H]1O`: the Ki on Adenosine receptor A2a was 4590 nM; at Adenosine receptor A3, 34600 nM; at Uncharacterized protein it was 4690 nM; at A1 adenosine receptor [3], 6.6 nM; at Adenosine receptor A1 [4], 1.7 nM; on Adenosine receptor A1 [6], 1.87 nM. For the same compound, the Efficacy in [1] turned out to be 97%. Moreover, the results for the Ratio Ki (in the assay listed under Homo sapiens [2]; in the assay filed under Homo sapiens [5]; in [7]) were 21.7, 2460 and 113, respectively. The EC50 at A1 adenosine receptor [8] was found to be 18.3 nM.

The Ki is a measure of affinity in units of concentration, obtained from inhibition or displacement. The term EC50 denotes the concentration at which the effect is half-maximal.
